Values quoted from earlier work in patent US20240000802A1, “DIFLUPREDNATE FOR REDUCING THE ADVERSE EFFECTS OF OCULAR INFLAMMATION” (SUN PHARMA ADVANCED RESEARCH COMPANY LIMITED, priority 2020, published 2024).

CCCC(=O)O[C@]1(C(=O)COC(C)=O)CC[C@H]2[C@@H]3C[C@H](F)C4=CC(=O)C=C[C@]4(C)[C@@]3(F)[C@@H](O)C[C@@]21C [Difluprednate]
solubility in aqueous vehicle: practically insoluble
